According to patent publication US8158380B2, “Imaging agents for protein misfolding” (New York University, priority 2007, dated 2012):

Target: amyloid plaques (Homo sapiens, UniProt P05067)
Assay: In vivo staining after intraperitoneal injection in PS/APP Tg mice, sections viewed under fluorescent microscope
Design: from tissue; host or cells: brain of PS/APP (APP/PS1) transgenic mice, as sections or in vivo
Description: Methods used: Five groups each of 6-month-old PS/APP Tg mice were tested (which have abundant amyloid plaques) with the compounds of the present invention. The mice received an intraperitoneal injection of compounds 23, 8 or 8F (30 μg/gram). They were sacrificed 24 hours later by ip injection of sodium pentobarbital (150 mg/kg). All animals were transcardially perfused with 20 ml of 0.1 M phosphate buffered saline (pH 7.4) with the addition of heparin followed by 80 ml of 4% formaldehyde in 0.1 M phosphate buffer. The brain was removed from the skull, cryoprotected using increasing concentrations of sucrose, and cut into serial 40-μm-thick coronal section on a freezing microtome (Leica SM2400, Nussloch, Germany). Anti-amyloid β immunohistochemistry was performed on free-floating sections, using our previously published protocols^20-23. In brief, endogenous peroxidase activity was quenched in a bath with 0.3% H2O2 for 30 min. Unspecific staining was blocked by incubation in the blocking solution provided as a part of “Mouse on mouse” kit (Vector Elite staining kit, Vector Laboratories, Burlingame, Calif.). This procedure allows for detection of antigens in murine tissue using mouse mAb avoiding substantial background. Concentration of all mAbs was 0.25 mg/ml with the total concentration of protein in a stock solution of 1 mg/ml as assessed by a Coomasie colorimetric assay. 1:2000 dilution of the stock solution was used. Primary antibodies were applied for 30 minutes followed by thorough washing and the anti-mouse IgG biotinylated secondary antibody according to the kit manufacturer instruction. For fluorescent microscopy sections were incubated with streptavidin conjugated with Cy3 (1:400; Sigma, St. Louis Mo.) whereas for light microscopy they were incubated with avidin-horseradish peroxidase complex and developed using 3,3′-diaminobenzidine kit with nickel ammonium sulfate (Vector Laboratories, Burlingame, Calif.). Following immunostaining, sections were carried on slides, air-dried, and cover-slipped. […]

[1] = AD mice, in vivo injection, sacrificed 24 hours after injection

Chain of amyloid plaques (P05067 672-713 limits assumed): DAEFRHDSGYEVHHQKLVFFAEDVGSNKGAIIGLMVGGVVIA

## COc1ccc2nc(/C=C/c3ccc(-c4ccc(F)cc4)cc3)ccc2c1 [compound 8F]
[1]
  ability to cross the blood brain barrier: able to cross the blood brain barrier
  labeling of amyloid plaques in vivo: label amyloid plaques in vivo
AD model transgenic mice
  effectiveness in blood-brain barrier permeability and labeling amyloid plaques in tissue sections and in vivo: most effective
